Key:
[1] = tested on: human neuroblastoma SK-N-MC cells; experiment: Protection against neuronal death induced by 3-nitropropionic acid (inhibition of succinate dehydrogenase), WST-1; type: cell-based; conditions: NST0060 at 40 μM; 30 μM 3-NP, 22 hours; significant in the range of 4 to 40 μM
Experimental: The assay was performed on human neuroblastoma SK-N-MC cells in culture, maintained as described in section 2.1.
The inhibition caused by compound NST0060 with respect to cell death caused by treatment with 3-nitropropionic (3-NP) acid was analyzed. 3-NP is an irreversible inhibitor of the succinate dehydrogenase enzyme which in animal models causes oxidative stress and apoptotic cell death in the striatum and mimics neurochemical and anatomical changes associated with Huntington's disease (HD). These cells, not exceeding 15 passages, were seeded on 96-well plates treated for adherent cells with a cell concentration of 5×10^4 cells/well; 3 wells of the plate were seeded for each assay condition.
After 24 hours of cell incubation (at 37° C. and 5% CO2), the cell treatments were performed with 100 μl of total volume for the following conditions: • Control: culture medium (medium) • 3-Nitropropionic (3-NP): medium plus 30 μM 3-NP, causing death of 50% of the cells. • 3-NP plus NST0060: medium plus 3-NP (30 μM) plus NST0060 at 1, 4, 10, 40 or 100 μM.
The cells were incubated (at 37° C. and 5% CO2) with these treatments for 22 hours, after which time WST-1 reagent (Roche) was added. The WST-1 test is based on the measurement of metabolic activity (method described in section 2.1).

[2] = tested on: zebrafish (Danio rerio, AB strain) embryos; experiment: Zebrafish embryo acute toxicity, mortality (OECD C.15); type: in vivo; conditions: for Mortality (dead larvae with respect to the total): 3 days
Experimental: 30 control animals treated with dilution water and with daily replacement until the end of the assay.
30 animals treated with compound NST0060 (3 embryos for every ten replicates) diluted in dilution water at doses between 1 and 100 mg/Kg and with daily replacement of the substance during the days that the assay lasted.
After the time of exposure to the substances under study, the mortality record of the larvae was determined, results being shown in Table 2.

TNFα = experiment: LPS model of systemic inflammation in mice, plasma TNFα, NST0060 compared with simvastatin; type: in vivo; conditions: two i.p. doses of 50 mg/kg (lactone forms); 2 hours after LPS 8 mg/kg i.p.
Text: The investigators considered necessary to evaluate alternative activities with respect to hypocholesterolemic and neuroprotective activities given the characteristics and properties of the molecule. […] To evaluate this activity, a model of systemic shock in mice induced by lipopolysaccharide (LPS), a component of the gram negative bacteria structure that induces a cytokine-mediated, mainly TNFα-mediated, inflammatory response was used.
All the animals included during the experimental process were 12-week old male C57BL6 mice. The experiments were carried out strictly complying with the standard entitled Guidance on the Operation of Animals (Scientific Procedures, Act. 1986). The animals were subjected to their respective quarantine period and were treated with maximum precaution to minimize possible contaminations during treatments and handling.
In both cases 0.5% methyl cellulose in physiological saline, which was administered to mice in the control group with the same administration regimen, was used as a vehicle. Peripheral systemic inflammation was induced one hour after the last treatment by means of a single i.p. injection of LPS at 8 mg/kg. Two hours later blood was taken and plasma was obtained, which was used to evaluate the anti-inflammatory effect by analyzing plasma concentrations of TNFα by means of ELISA.

male C57BL6 mice = experiment: LPS model of systemic shock in mice, survival and symptomatology score; type: in vivo; conditions: LPS 8 mg/kg i.p.
Experimental: To that end an additional assay was carried out in which all the animals included were 12-week old male C57BL6 mice. The experiments were carried out strictly complying with the standard entitled Guidance on the Operation of Animals (Scientific Procedures, Act. 1986). The animals were subjected to their respective quarantine period and were treated with maximum precaution to minimize possible contaminations during treatments and handling.
The mice were split up into three experimental groups: control group (n=8); control+LPS group (n=16); NST0060+LPS group (n=16). The mice were i.p. administered two doses of 50 mg/kg of NST0060 (in its lactone form) spaced out 12 hours from one another. 0.5% methyl cellulose in physiological saline, which was administered to the mice in the control groups with the same administration regimen, was used as a vehicle. Peripheral systemic inflammation was induced one hour after the last treatment by means of a single i.p. injection of LPS at 8 mg/kg. Half the mice in which systemic shock was induced (8 animals from the control+LPS group and 8 animals from the NST0060+LPS group) were sacrificed 2 hours after the inoculation of the LPS. Blood was taken and plasma was obtained, and both were frozen. […] The concentration of the inflammatory cytokines TNFα and IL-1β was evaluated in the plasma obtained by means of ELISA.

FVB/NHan mice = experiment: Death caused by acute administration of kainate in mice, survival; type: in vivo; conditions: 50 mg/kg i.p. at 24 and 0.5 hours before KA 25 mg/kg and daily up to 7 days; p<0.05
Experimental: All the animals included during the experimental process were 12-week old males from the FVB/NHan strain. The experiments were carried out strictly complying with the standard entitled Guidance on the Operation of Animals (Scientific Procedures, Act. 1986). The animals were subjected to their respective quarantine period and were treated with maximum precaution to minimize possible contaminations during inoculations and handling.
The animals were intraperitoneally inoculated with 25 mg/kg of kainate (KA) dissolved in PBS. Fourteen animals were pretreated at 24 and 0.5 hours before inoculation with KA and subsequently on a daily basis up to 7 days post-inoculation by means of intraperitoneal injection with 0.25% methyl cellulose in PBS as a vehicle (vehicle+KA administration regimen) and 14 were pretreated at 24 and 0.5 hours before inoculation with KA and subsequently on a daily basis up to 7 days post-inoculation by means of intraperitoneal injection with compound NST0060 at a dose of 50 mg/kg (NST0060+KA administration regimen). After inoculation, the animals were individually housed in trays to monitor them.

Structure (SMILES): CCCC(CCC)C(=O)O[C@H]1C[C@@H](C)C=C2C=C[C@H](C)[C@H](CC[C@@H]3C[C@@H](O)CC(=O)O3)[C@H]21 [NST0060, 2-propylpentanoic acid (1S,3R,7S,8S,8aR)-1,2,3,7,8,8a-hexahydro-3,7-dimethyl-8-[2-[(2R,4R)-tetrahydro-4-hydroxy-6-oxo-2H-pyran-2-yl]ethyl]-1-naphthalenyl ester]
- protection against cell death caused by 3-NP [1]: 32%
- Mortality (dead larvae with respect to the total) ([2]; Dose 1 mg/kg): 0/30
- Mortality (dead larvae with respect to the total) ([2]; Dose 3 mg/kg): 0/30
- Mortality (dead larvae with respect to the total) ([2]; Dose 10 mg/kg): 7/30
- Mortality (dead larvae with respect to the total) ([2]; Dose 30 mg/kg): 30/30
- Mortality (dead larvae with respect to the total) ([2]; Dose 100 mg/kg): 30/30
- deaths out of 30 animals ([2]; dose of 10 mg/Kg, 72 h): 7
- TNFα plasma levels with respect to the control group (TNFα): large decrease in said levels that is significant with respect to the control group
- TNFα plasma levels with respect to the simvastatin group (TNFα): statistically significant TNFα plasma level reductions with respect to the group of simvastatin
- survival rate / mortality induced by LPS (male C57BL6 mice; two i.p. doses of 50 mg/kg (lactone form), observed 15 days): mortality induced by LPS is prevented in a statistically significant manner
- score associated with the symptomatology (0 to 3) (male C57BL6 mice; two i.p. doses of 50 mg/kg, statistically significant at 24 hours): lower severity of the systemic shock process
- mortality caused by KA (FVB/NHan mice): reduces mortality observed in a statistically significant manner

Source: patent US20130197073A1, “HYPOCHOLESTEROLEMIC, ANTI-INFLAMMATORY AND ANTIEPILEPTIC NEUROPROTECTIVE COMPOUND” (NEURON BIOPHARMA, S.A., priority 2010, published 2013)
